Experimental data reported in patent publication US6627441B1, “Increasing levels of growth regulator and/or water stress during embryo development” (priority 1998, dated 2003).

Experiments:
Assay type in all cases: cell-based
[1] = tested on: white spruce somatic embryos; assay: Liquid maturation pretreatments with ABA and PEG, number of mature embryos (Example 7)
Method: Experiments were established to determine whether increasing ABA and water stress can be applied early in maturation. Somatic embryos in liquid maintenance suspension culture were transferred to liquid culture medium containing 1/20 of the strength of hormones in the preculture medium for 7 days. Seven treatments were prepared using these cultures as outlined below.
Starting water potential was 112 mmol/kg, and all preculture media contained 1/20 strength 2,4-D and BA that were present in the proliferation medium. Following these treatments, a 20% suspension was prepared and the embryos were plated onto solidified maturation medium containing PEG adjusted to 290 mmol/kg with PEG and 20 μM ABA.
Experiments were repeated at least three times and three replicates were prepared per treatment. Cultures were transferred to fresh medium every two weeks. Alternatively, to determine if PEG/ABA liquid maturation treatments modified the optimal starting water potential, the embryos were plated from the nine treatments to medium containing ABA at 20 μM and PEG at 290 or 380 mmol/kg. Additionally, to determine if PEG/ABA liquid maturation treatments modified the optimal starting ABA concentration, the embryos were plated from the nine treatments to medium containing PEG at 337 mmol/kg and ABA at 20 or 40 μM. Cultures were transferred to fresh medium every two weeks. After six weeks, the number of embryos developing per 0.75 mL starting inoculum was recorded. It can be seen from FIG. 3 that all treatments in which PEG and ABA were added gave an improvement over the control. Previous experiments had shown that the control ( 1/20 of the hormones present in the proliferation medium) yielded almost four times the number of mature embryos compared to no pretreatment (i e., full hormone treatment), and almost three times the number of mature embryos compared to culture in hormone-free preculture medium (i e., means of 154, 41, and 58 mature embryos per replicate, respectively). […] The best treatments were those that contained additions of both PEG and ABA. […]

[2] = tested on: white spruce somatic embryos; assay: Reducing or increasing ABA with increasing water stress and desiccation, plant growth (Example 9); conditions: for Shoot development / Survival / Total plant length: 8 weeks growth
Method: Experiments were conducted to determine the effects of decreasing ABA levels in combination with increasing water stress on development, desiccation tolerance and germination of white spruce. Embryos from preculture (Example 7, treatment 8) were plated onto the transfer schedule outlined below.
Cotyledonary embryos were visible after the second week of culture, and cotyledons were prominent from the fourth week during which time the somatic embryos were in contact with 40 to 20 μM of ABA. […] For germination, the best embryos which were not showing precocious germination were selected. Somatic embryos were either germinated directly or were desiccated then germinated as described above. Controls were prepared using embryos developed using pretreatment 8, in Example 7, followed by culture on solidified medium treatment 6 of Example 4.

[3] = tested on: Douglas fir somatic embryos; assay: Douglas fir somatic embryogenesis (Example 11)
Method: Douglas fir may be cultured using sucrose at 1-3% (30-90 mM), however, other sugars may be used at the same concentrations. Maintenance cultures usually contain the sugar at about 1%. […] Douglas fir embryogenic tissue was induced from developing seed. Embryos contained in megametophytes were induced and maintained on TX maintenance medium having 1% sucrose. This medium contained 0.2 g/L glutamine and 0.2 g/L casein hydrolysate. Selected embryogenic tissue was subcultured biweekly per petri dish. Medium was solidified with 2.4 g/L PHYTAGEL™. This medium contained 9 μM 2,4-D and 4.5 μM BA. Liquid suspension cultures were maintained in flasks containing 50 mL liquid maintenance medium Liquid cultures were subcultured weekly. For maturation, the embryogenic suspension was first precultured in liquid medium without growth regulators, and subcultured weekly. The water potential of the maintenance cultures and precultures remained below 150 mmol/kg. After one or two weeks of preculture, 1 to 2 g of filtered tissue was resuspended in 10 mL fresh medium and 0.75 mL of the new suspension was pipetted onto the solid maturation medium. Maturation medium contained calcium chloride at 105 mg/L, and ammonium nitrate was included at 400 mg/L. Glutamine was used at 0.8 g/L for the first week then reduced to 0.1 g/L thereafter. Casein hydrolysate was maintained at 0.2 g/L. The sugar was increased to 2-3% and the medium was solidified with Phytagel at 2.8 to 3.4 g/L. ABA was added into the medium after filter sterilization. The maturation medium also contained PEG. The ABA and water potential were raised following the schedule in the following table.
In some instances, the PEG was reduced and the water potential made up to the desired level using lactose at 0% in the first week, 1% in week 2, 4% in weeks 3 and 4, 5% in week 5, and 6% in week 6. Although this allowed a firmer gel to set than otherwise would occur with PEG alone, it may not provide any other benefit over full PEG (see, for example, Table 8), particularly if liquid culture medium is used. […] The embryos were desiccated and stored in a freezer as described for spruce, or germinated directly without desiccation. For germination, embryos were placed on half-strength basal medium containing 0.4 g/L calcium nitrate, 0.2 g/L ammonium nitrate, no hormones and 2% sucrose and 0.6% agar. These were grown in the light.

[4] = ABA 30 to 60 μM and water potential 294 to 814 mmol/kg over 6 weeks

CC1=CC(=O)CC(C)(C)[C@@]1(O)/C=C/C(C)=C\C(=O)O [ABA, abscisic acid]
best starting concentration of ABA in solidified maturation medium ([1]; optimal liquid treatments, PEG 337 mmol/kg, 20 or 40 μM tested, FIG. 4): 20 µM
embryos per milliliter of starting inoculum ([1]; treatment 8: PEG and ABA added in steps at days 3 and 5): over 280 embryos per milliliter
average number of mature embryos ([1]; treatment 8: PEG and ABA added in steps at days 3 and 5 of liquid culture, per 0.75 mL inoculum): about 224 mature embryos per replicate
appearance of developed embryos, precocious germination ([2]; ABA decreasing 40, 20, 10, 0 μM with PEG 290, 400, 540, 540 mmol/kg over 6 weeks): slight swelling and slight greening
Shoot development ([2]; Increasing ABA, desiccated): 93%
Survival ([2]; Increasing ABA, desiccated): 100%
Total plant length ([2]; Increasing ABA, desiccated): 34.5 mm
Shoot development ([2]; Reducing ABA, desiccation): 0%
Survival ([2]; Reducing ABA, desiccation): 80.5%
Total plant length ([2]; Reducing ABA, desiccation): 8.14 mm
Shoot development ([2]; Reducing ABA, no desiccation): 0%
Survival ([2]; Reducing ABA, no desiccation): 100%
Total plant length ([2]; Reducing ABA, no desiccation): 25.8 mm
new needle development ([2]; Reducing ABA, non-desiccated embryos, after 12 weeks of growth): none had shown new needle development
germination with shoot and needle development, frequency [3, 4]: ~100%
precocious germination [3, 4]: Precocious germination was prevented
survival after transfer to soil in a greenhouse, frequency ([3]; somatic plants produced using the methods of this invention): up to 95%
